System: A54145.1, A54145.2, and A54145.3
Experiment: Resistance to antibiotics, sensitivity discs on seeded ISP No. 2 agar plates
Assay type: cell-based, Streptomyces fradiae
Description: A54145.1, A54145.2, and A54145.3 had identical antibiotic-resistance patterns. The strains were resistant to lincomycin at 2 µg and penicillin G at 10 units. The strains were sensitive to bacitracin at 10 units, cephalothin at 30 µg, gentamicin at 10 µg, neomycin at 30 µg, oleandomycin at 15 µg, rifampin at 5 µg, streptomycin at 10 µg, tetracycline at 30 µg, tobramycin at 10 µg and vancomycin at 30 µg.

In the case of `CC(=O)OCC1=C(C(=O)O)N2C(=O)[C@@H](NC(=O)Cc3cccs3)[C@H]2SC1` [cephalothin], the antibiotic-resistance pattern (disc at 30 µg) is reported as “sensitive”.
For `CCC[C@@H]1C[C@@H](C(=O)N[C@@H]([C@H]2O[C@H](SC)[C@H](O)[C@@H](O)[C@H]2O)[C@@H](C)O)N(C)C1` [lincomycin], the antibiotic-resistance pattern (disc at 2 µg) was “resistant”.
With `CO[C@H]1C[C@H](O[C@H]2[C@H](C)[C@@H](O[C@@H]3O[C@H](C)C[C@H](N(C)C)[C@H]3O)[C@@H](C)C[C@@]3(CO3)C(=O)[C@H](C)[C@@H](O)[C@@H](C)[C@@H](C)OC(=O)[C@@H]2C)O[C@@H](C)[C@@H]1O` [oleandomycin] the antibiotic-resistance pattern (disc at 15 µg) was “sensitive”.
For `CC1(C)S[C@@H]2[C@H](NC(=O)Cc3ccccc3)C(=O)N2[C@H]1C(=O)O` [penicillin G], the antibiotic-resistance pattern (disc at 10 units) was “resistant”.
`CO[C@H]1/C=C/O[C@@]2(C)Oc3c(C)c(O)c4c(O)c(c(/C=N/N5CCN(C)CC5)c(O)c4c3C2=O)NC(=O)/C(C)=C\C=C\[C@H](C)[C@H](O)[C@@H](C)[C@@H](O)[C@@H](C)[C@H](OC(C)=O)[C@@H]1C` [rifampin] was tested, and the antibiotic-resistance pattern (disc at 5 µg) was “sensitive”.
`[H]/N=C(/N)N[C@H]1[C@H](O)[C@@H](O)[C@H](O[C@@H]2O[C@@H](C)[C@](O)(C=O)[C@H]2O[C@@H]2O[C@@H](CO)[C@H](O)[C@@H](O)[C@@H]2NC)[C@@H](N/C(N)=N\[H])[C@@H]1O` [streptomycin] was tested, and the antibiotic-resistance pattern (disc at 10 µg) was “sensitive”.
For `NC[C@H]1O[C@H](O[C@H]2[C@H](O)[C@@H](O[C@H]3O[C@H](CO)[C@@H](O)[C@H](N)[C@H]3O)[C@H](N)C[C@@H]2N)[C@H](N)C[C@@H]1O` [tobramycin], the antibiotic-resistance pattern (disc at 10 µg) was “sensitive”.
`CN[C@H](CC(C)C)C(=O)N[C@H]1C(=O)N[C@@H](CC(N)=O)C(=O)N[C@H]2C(=O)N[C@H]3C(=O)N[C@H](C(=O)N[C@H](C(=O)O)c4cc(O)cc(O)c4-c4cc3ccc4O)[C@H](O)c3ccc(c(Cl)c3)Oc3cc2cc(c3O[C@@H]2O[C@H](CO)[C@@H](O)[C@H](O)[C@H]2O[C@H]2C[C@](C)(N)[C@H](O)[C@H](C)O2)Oc2ccc(cc2Cl)[C@H]1O` [vancomycin] was tested, and the antibiotic-resistance pattern (disc at 30 µg) was “sensitive”.
In the case of bacitracin, the antibiotic-resistance pattern (disc at 10 units) is reported as “sensitive”.
With gentamicin the antibiotic-resistance pattern (disc at 10 µg) was “sensitive”.
With neomycin the antibiotic-resistance pattern (disc at 30 µg) was “sensitive”.
